Values joined by “and” are separate entries in the source; they are usually repeats but may differ in a detail not shown here. Equal values may be shown once. Blank lines part the entries; values can stand above or below the compound they belong to.
Legend:
Assay in all cases: radiometric filter-binding kinase assay, Kinase HotSpot
Conditions in all cases: compound 0.5 µM; ATP 10 µM
[1] = molecular target: PBK (human) (UniProt Q96KB5)
[2] = molecular target: STK4 (human) (UniProt Q13043)
[3] = molecular target: PRKG2 (human) (UniProt Q13237)
[4] = molecular target: AKT2 (human) (UniProt P31751)
[5] = molecular target: PRKCB1 (human) (UniProt P05771)
[6] = molecular target: RPS6KA5 KD2 (human) (UniProt O75582)
[7] = molecular target: YES1 (human) (UniProt P07947)
[8] = molecular target: NEK2 (human) (UniProt P51955)
[9] = molecular target: DAPK1 (human) (UniProt P53355)
[10] = molecular target: CSK (human) (UniProt P41240)
[11] = molecular target: NEK9 (human) (UniProt Q8TD19)
[12] = molecular target: LIMK1 (human) (UniProt P53667)
[13] = molecular target: GRK6 (human) (UniProt P43250)
[14] = molecular target: VRK1 (human) (UniProt Q99986)
[15] = molecular target: CLK2 (human) (UniProt P49760)
[16] = molecular target: ROCK1 (human) (UniProt Q13464)
[17] = molecular target: PRKCE (human) (UniProt Q02156)
[18] = molecular target: MAP3K7 TAB1 (human) (UniProt O43318+Q15750)
[19] = molecular target: BMX (human) (UniProt P51813)
[20] = molecular target: MLTK (human) (UniProt Q9NYL2)
[21] = molecular target: PRKD3 (human) (UniProt O94806)
[22] = molecular target: SLK (human) (UniProt Q9H2G2)
[23] = molecular target: EPHA4 (human) (UniProt P54764)
[24] = molecular target: LCK (human) (UniProt P06239)
[25] = molecular target: PRKG1 (human) (UniProt Q13976)
[26] = molecular target: NTRK3 (human) (UniProt Q16288)
[27] = molecular target: GSG2 (human) (UniProt Q8TF76)
[28] = molecular target: CDC42BPB (human) (UniProt Q9Y5S2)
[29] = molecular target: TTK (human) (UniProt P33981)
[30] = molecular target: DMPK (human) (UniProt Q09013)
[31] = molecular target: NUAK2 (human) (UniProt Q9H093)
[32] = molecular target: EPHB1 (human) (UniProt P54762)
[33] = molecular target: PRKCD (human) (UniProt Q05655)
[34] = molecular target: SGK2 (human) (UniProt Q9HBY8)
[35] = molecular target: CDK4 CCND1 (human) (UniProt P24385+P11802)
[36] = molecular target: SRMS (human) (UniProt Q9H3Y6)
[37] = molecular target: BRSK1 (human) (UniProt Q8TDC3)
[38] = molecular target: CAMK2D (human) (UniProt Q13557)
[39] = molecular target: MAP2K1 (human) (UniProt Q02750)
[40] = molecular target: TAOK1 (human) (UniProt Q7L7X3)
[41] = molecular target: MYO3B (human) (UniProt Q8WXR4)
[42] = molecular target: IKBKE (human) (UniProt Q14164)

CAMK2D (human), sequence (Q13557 whole entry, looked up): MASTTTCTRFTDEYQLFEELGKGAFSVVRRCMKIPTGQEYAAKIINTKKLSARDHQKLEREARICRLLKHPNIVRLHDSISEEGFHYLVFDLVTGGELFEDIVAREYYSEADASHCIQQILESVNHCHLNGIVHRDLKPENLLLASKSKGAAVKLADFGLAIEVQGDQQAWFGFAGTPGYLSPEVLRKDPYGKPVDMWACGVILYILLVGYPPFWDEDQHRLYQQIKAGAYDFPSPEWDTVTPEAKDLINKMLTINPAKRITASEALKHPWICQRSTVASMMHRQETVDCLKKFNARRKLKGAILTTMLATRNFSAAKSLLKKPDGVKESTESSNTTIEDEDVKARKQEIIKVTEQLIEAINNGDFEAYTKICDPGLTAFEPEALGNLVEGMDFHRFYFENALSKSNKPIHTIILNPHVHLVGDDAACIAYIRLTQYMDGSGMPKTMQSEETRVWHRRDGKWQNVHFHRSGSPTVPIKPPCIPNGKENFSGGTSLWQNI
EPHB1 (human), sequence (P54762 whole entry, looked up): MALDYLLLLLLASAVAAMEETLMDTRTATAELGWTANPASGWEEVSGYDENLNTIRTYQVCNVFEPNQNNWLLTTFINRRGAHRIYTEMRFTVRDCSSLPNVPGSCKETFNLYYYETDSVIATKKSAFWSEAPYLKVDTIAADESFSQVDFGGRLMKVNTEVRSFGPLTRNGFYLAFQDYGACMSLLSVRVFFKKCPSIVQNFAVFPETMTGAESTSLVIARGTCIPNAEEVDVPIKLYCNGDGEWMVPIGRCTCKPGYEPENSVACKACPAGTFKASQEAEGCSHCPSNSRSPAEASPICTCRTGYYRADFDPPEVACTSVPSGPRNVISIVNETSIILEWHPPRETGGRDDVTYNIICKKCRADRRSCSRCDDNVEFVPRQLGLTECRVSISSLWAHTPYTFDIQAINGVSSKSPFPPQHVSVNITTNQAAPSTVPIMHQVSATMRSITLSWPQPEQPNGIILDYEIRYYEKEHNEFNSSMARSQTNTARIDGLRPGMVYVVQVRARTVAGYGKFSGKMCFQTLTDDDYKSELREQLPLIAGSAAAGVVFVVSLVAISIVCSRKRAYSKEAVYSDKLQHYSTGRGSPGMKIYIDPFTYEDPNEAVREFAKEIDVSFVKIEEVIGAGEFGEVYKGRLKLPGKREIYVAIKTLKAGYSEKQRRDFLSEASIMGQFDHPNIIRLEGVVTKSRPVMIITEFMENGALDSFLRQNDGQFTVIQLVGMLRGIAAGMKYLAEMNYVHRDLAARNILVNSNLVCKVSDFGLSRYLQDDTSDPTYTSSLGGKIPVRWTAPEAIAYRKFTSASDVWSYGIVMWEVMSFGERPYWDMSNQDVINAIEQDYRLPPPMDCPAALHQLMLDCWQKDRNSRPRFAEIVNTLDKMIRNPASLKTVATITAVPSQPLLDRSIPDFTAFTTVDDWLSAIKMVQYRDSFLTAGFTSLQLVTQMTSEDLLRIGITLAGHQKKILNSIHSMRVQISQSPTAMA
PBK (human), sequence (Q96KB5 whole entry, looked up): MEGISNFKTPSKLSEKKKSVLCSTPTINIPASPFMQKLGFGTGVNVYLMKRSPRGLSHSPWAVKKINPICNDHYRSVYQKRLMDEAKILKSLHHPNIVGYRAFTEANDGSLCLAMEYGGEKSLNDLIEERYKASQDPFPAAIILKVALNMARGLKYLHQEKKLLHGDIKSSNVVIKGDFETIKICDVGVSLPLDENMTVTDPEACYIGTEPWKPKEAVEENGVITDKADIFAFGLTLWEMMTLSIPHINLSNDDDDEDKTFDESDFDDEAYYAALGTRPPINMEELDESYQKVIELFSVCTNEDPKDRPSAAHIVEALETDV
PRKCE (human), sequence (Q02156 whole entry, looked up): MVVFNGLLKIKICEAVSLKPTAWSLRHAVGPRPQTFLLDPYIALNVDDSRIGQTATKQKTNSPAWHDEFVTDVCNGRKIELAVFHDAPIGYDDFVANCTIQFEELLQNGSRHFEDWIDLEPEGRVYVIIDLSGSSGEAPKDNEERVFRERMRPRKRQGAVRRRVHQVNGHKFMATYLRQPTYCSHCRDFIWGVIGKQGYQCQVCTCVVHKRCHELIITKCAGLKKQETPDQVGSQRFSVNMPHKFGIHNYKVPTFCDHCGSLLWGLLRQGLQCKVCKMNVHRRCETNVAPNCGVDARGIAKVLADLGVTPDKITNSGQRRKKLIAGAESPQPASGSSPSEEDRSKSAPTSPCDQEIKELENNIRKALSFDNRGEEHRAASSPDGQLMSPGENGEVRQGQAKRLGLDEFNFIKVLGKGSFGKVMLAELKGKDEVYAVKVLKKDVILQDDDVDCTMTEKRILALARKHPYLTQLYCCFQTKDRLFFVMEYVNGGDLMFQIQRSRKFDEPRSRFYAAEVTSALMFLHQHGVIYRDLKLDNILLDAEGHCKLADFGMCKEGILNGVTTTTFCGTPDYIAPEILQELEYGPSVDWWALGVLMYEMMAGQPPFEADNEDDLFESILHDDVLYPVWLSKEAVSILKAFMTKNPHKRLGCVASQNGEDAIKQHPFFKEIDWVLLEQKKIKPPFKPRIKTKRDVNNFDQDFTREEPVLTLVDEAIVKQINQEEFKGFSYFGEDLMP
MAP2K1 (human), sequence (Q02750 whole entry, looked up): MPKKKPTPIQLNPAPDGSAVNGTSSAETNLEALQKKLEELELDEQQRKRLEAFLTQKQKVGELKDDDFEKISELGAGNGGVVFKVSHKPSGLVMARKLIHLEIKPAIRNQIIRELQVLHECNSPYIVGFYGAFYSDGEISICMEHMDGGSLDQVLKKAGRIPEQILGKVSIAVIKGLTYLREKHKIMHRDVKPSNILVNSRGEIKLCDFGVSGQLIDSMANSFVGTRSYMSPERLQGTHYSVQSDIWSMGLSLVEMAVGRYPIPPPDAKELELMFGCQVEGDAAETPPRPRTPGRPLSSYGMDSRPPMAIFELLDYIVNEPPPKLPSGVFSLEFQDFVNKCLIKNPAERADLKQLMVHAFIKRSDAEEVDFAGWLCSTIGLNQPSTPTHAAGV
TAOK1 (human), sequence (Q7L7X3 whole entry, looked up): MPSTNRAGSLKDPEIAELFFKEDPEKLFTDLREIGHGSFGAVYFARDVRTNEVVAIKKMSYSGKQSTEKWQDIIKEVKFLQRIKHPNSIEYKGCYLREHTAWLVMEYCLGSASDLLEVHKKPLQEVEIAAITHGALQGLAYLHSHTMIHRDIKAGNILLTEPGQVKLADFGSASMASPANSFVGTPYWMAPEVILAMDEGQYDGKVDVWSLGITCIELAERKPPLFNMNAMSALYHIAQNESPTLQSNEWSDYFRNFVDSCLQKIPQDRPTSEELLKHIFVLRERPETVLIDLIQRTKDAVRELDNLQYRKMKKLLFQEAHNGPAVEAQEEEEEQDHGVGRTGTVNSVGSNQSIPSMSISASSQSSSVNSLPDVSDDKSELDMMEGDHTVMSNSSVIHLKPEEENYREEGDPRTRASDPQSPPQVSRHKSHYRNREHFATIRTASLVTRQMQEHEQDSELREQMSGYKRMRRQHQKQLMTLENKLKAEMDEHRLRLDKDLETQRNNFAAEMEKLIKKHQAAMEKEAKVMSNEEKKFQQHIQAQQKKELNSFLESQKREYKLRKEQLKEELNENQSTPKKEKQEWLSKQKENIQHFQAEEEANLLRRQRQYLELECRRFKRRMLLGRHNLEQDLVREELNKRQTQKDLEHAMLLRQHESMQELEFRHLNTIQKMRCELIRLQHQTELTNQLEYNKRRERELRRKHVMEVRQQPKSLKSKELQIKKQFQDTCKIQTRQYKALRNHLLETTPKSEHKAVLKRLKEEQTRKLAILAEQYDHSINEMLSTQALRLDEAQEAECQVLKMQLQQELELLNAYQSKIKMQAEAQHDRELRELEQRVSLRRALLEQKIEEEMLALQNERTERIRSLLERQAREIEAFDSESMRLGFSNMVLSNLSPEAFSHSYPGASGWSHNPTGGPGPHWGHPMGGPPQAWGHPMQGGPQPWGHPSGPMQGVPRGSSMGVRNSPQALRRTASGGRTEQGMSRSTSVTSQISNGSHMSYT
DMPK (human), sequence (Q09013 whole entry, looked up): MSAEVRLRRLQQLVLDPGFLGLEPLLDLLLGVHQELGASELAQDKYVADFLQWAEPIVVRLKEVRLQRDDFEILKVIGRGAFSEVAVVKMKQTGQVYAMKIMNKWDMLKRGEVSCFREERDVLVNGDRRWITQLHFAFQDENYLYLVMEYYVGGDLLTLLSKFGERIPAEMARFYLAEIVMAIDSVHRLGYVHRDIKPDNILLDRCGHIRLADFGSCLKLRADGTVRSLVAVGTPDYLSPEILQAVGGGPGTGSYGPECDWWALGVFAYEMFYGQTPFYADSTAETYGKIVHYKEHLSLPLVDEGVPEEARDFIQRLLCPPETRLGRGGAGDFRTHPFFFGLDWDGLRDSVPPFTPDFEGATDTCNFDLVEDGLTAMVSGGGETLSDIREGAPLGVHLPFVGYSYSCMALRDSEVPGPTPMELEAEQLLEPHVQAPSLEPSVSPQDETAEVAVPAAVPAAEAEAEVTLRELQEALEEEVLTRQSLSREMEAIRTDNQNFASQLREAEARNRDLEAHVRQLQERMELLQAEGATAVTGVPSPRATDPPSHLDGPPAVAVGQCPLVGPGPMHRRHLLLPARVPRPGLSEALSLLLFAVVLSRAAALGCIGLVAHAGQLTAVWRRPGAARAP
AKT2 (human), sequence (P31751 whole entry, looked up): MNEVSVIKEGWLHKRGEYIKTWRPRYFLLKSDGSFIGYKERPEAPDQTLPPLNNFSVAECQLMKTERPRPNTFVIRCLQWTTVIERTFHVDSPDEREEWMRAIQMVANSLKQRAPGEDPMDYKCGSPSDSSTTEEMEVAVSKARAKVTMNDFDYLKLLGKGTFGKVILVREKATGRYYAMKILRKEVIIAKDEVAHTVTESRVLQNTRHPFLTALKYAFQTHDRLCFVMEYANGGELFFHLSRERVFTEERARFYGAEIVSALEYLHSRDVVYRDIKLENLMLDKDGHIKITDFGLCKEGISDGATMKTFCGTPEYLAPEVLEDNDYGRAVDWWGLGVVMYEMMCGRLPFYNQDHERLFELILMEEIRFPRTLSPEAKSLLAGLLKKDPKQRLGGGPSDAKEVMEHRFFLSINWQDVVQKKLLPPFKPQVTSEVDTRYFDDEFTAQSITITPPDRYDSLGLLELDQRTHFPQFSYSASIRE

SMILES: COc1cc2ncnc(Nc3cccc(Cl)c3)c2cc1OC
residual activity [1]: 70.9%
residual activity [2]: 92%
residual activity [3]: 92.2%
residual activity [4]: 84.1%
residual activity [5]: 103%
residual activity [6]: 97.8%
residual activity [7]: 59.9%
residual activity [8]: 88.3%
residual activity [9]: 108%
residual activity [10]: 91.1%
residual activity [11]: 82.6%
residual activity [12]: 72.4%
residual activity [13]: 96.8%
residual activity [14]: 105%
residual activity [15]: 89.6%
residual activity [16]: 95.9%
residual activity [17]: 97.8%
residual activity [18]: 96.9%
residual activity [19]: 88.6%
residual activity [20]: 99.3%
residual activity [21]: 86.5%
residual activity [22]: 64.6%
residual activity [23]: 81.7%
residual activity [24]: 74.9%
residual activity [25]: 93.8% and 95.2%
residual activity [26]: 86.3%
residual activity [27]: 84.8%
residual activity [28]: 84.9%
residual activity [29]: 108%
residual activity [30]: 102%
residual activity [31]: 142%
residual activity [32]: 82.8%
residual activity [33]: 86.4%
residual activity [34]: 97.8%
residual activity [35]: 103%
residual activity [36]: 93.8%
residual activity [37]: 93.1%
residual activity [38]: 96.1%
residual activity [39]: 98.5%
residual activity [40]: 108%
residual activity [41]: 81.2%
residual activity [42]: 101%

SMILES: CCCC(=O)Oc1ccc2[nH]c(C(=O)c3cc4ccccc4[nH]3)cc2c1
residual activity [1]: 104%
residual activity [2]: 96.8%
residual activity [3]: 97.6%
residual activity [4]: 105%
residual activity [5]: 97.3%
residual activity [6]: 95.3%
residual activity [7]: 84.4%
residual activity [8]: 86.8%
residual activity [9]: 85.8%
residual activity [10]: 83.5%
residual activity [11]: 110%
residual activity [12]: 93.9%
residual activity [13]: 95.8%
residual activity [14]: 85.9%
residual activity [15]: 94.3%
residual activity [16]: 105%
residual activity [17]: 91%
residual activity [18]: 92.1%
residual activity [19]: 97.4%
residual activity [20]: 104%
residual activity [21]: 102%
residual activity [22]: 98.9%
residual activity [23]: 99.3%
residual activity [24]: 94%
residual activity [25]: 104% and 95.1%
residual activity [26]: 95.9%
residual activity [27]: 99.2%
residual activity [28]: 99.5%
residual activity [29]: 85.7%
residual activity [30]: 94.4%
residual activity [31]: 73.4%
residual activity [32]: 92.1%
residual activity [33]: 88.8%
residual activity [34]: 99.4%
residual activity [35]: 106%
residual activity [36]: 104%
residual activity [37]: 99.5%
residual activity [38]: 111%
residual activity [39]: 99.9%
residual activity [40]: 82.8%
residual activity [41]: 98.6%
residual activity [42]: 91.4%

residual activity [1]: 104%
residual activity [2]: 49.1%
residual activity [3]: 104%
residual activity [4]: 102%
residual activity [5]: 94%
residual activity [6]: 94.1%
residual activity [7]: 27%
residual activity [8]: 50.8%
residual activity [9]: 106%
residual activity [10]: 78.2%
residual activity [12]: 87.9%
residual activity [13]: 89.7%
residual activity [14]: 87.3%
residual activity [15]: 5.1%
residual activity [16]: 84%
residual activity [17]: 99.1%
residual activity [18]: 79.8%
residual activity [19]: 97.3%
residual activity [20]: 97.4%
residual activity [21]: 42.7%
residual activity [22]: 13.6%
residual activity [23]: 80.7%
residual activity [24]: 29.3%
residual activity [25]: 93.2% and 97.1%
residual activity [26]: 5.93%
residual activity [27]: 102%
residual activity [28]: 113%
residual activity [29]: 90.7%
residual activity [30]: 113%
residual activity [31]: 61.9%
residual activity [32]: 84.5%
residual activity [33]: 95.3%
residual activity [34]: 103%
residual activity [35]: 88.5%
residual activity [36]: 104%
residual activity [37]: 101%
residual activity [38]: 68.4%
residual activity [39]: 89.3%
residual activity [40]: 41.9%
residual activity [41]: 72.5%
residual activity [42]: 74.2%
SMILES: Cc1[nH]c(/C=C2\C(=O)Nc3ccc(S(=O)(=O)N(C)c4cccc(Cl)c4)cc32)c(C)c1C(=O)N1CCN(C)CC1
residual activity [11]: 92.5%

SMILES: Nc1ccc2ncnc(NCCc3ccc(Oc4ccccc4)cc3)c2c1
residual activity [1]: 98.2%
residual activity [2]: 95.8%
residual activity [3]: 105%
residual activity [4]: 101%
residual activity [5]: 96.3%
residual activity [6]: 98.3%
residual activity [7]: 112%
residual activity [8]: 90%
residual activity [9]: 110%
residual activity [10]: 96.7%
residual activity [11]: 95.8%
residual activity [12]: 101%
residual activity [13]: 99.3%
residual activity [14]: 99.5%
residual activity [15]: 83%
residual activity [16]: 94.4%
residual activity [17]: 109%
residual activity [18]: 96.2%
residual activity [19]: 102%
residual activity [20]: 102%
residual activity [21]: 98.1%
residual activity [22]: 102%
residual activity [23]: 98.5%
residual activity [24]: 98.3%
residual activity [25]: 93.1% and 94.5%
residual activity [26]: 98.4%
residual activity [27]: 96.9%
residual activity [28]: 105%
residual activity [29]: 97.6%
residual activity [30]: 94.2%
residual activity [31]: 112%
residual activity [32]: 97.9%
residual activity [33]: 97.6%
residual activity [34]: 99.6%
residual activity [35]: 102%
residual activity [36]: 99.2%
residual activity [37]: 101%
residual activity [38]: 98.9%
residual activity [39]: 107%
residual activity [40]: 84.2%
residual activity [41]: 96.6%
residual activity [42]: 95.6%

From the kinase profiling compilation of Christmann-Franck et al. (2016)
